# Measurements from patent US5859067A, “Use of natural products and related synthetic compounds for the treatment of cardiovascular disease” (priority 1993, dated 1999).
# “And” between values parts separate entries of the source, which are not always exact repeats. Identical values can stand only once. Like-named read-outs stand apart in the source and are kept apart here.
# Assays:
# [1] = tested on: brine shrimp (Artemia salina Leach); assay: Brine shrimp toxicity bioassay; type: in vivo; conditions: for LC50: Artemia salina, read-out: LC50 brine shrimp
# Method: There are many applications of the assay including analysis of toxic substances, anaesthetics, morphine-like substances and cocarcinogenicity of phorbol esters.
# 6 (K Hostettman, ed.), Academ Press, London, 1-32. DMSO solutions of the substances to be tested were added directly to the vials containing the brine shrimp. As the concentration of DMSO that we wished to use was higher than the recommended 1% v/v testing of the toxicity of the DMSO was therefore necessary.
# Brine shrimp toxicity was assayed, except for some minor modifications, according to the method of McLaughlin et al as reported in Brine Shrimp: A convenient general bioassay for active plant constituents, B N Meyer, N R Ferrigni, J E Putman, L B Jacobsen, D E Nhols and J L McLaughlin. […] J L McLaughlin. […] 6 (K Hostettman, ed.), Academ Press, London, 1-32. Ten shrimp were added transferred to each of the vials and the volume adjusted to 4.9 mL. Each dose was performed in triplicate, including the control. In quick succession, the appropriate volume of additional DMSO for each dose, required to achieve a final concentration of 2%, was added before the appropriate volume of test solution. The vials were gently mixed and the time noted. After 24 hours, the number of survivors were counted and % mortality was determined.
# The LC50 values were expressed in both μM and μg/mL.
# [2] = target: T1, human erythrocyte plasma membrane Ca^2+ -ATPase (Homo sapiens, UniProt P23634); assay: Ca^2+ -ATPase assay (microplate method), absence (-CaM) and presence (+CaM) of calmodulin (Table 1A); type: biochemical
# T1 construct: Calmodulin-depleted erythrocyte membranes were prepared by continuous filtration through a hollow fibre; tissue New South Wales Red Cross Transfusion Service, Sydney; host or cells: human packed red blood cells (calmodulin-depleted erythrocyte membranes)
# T1 sequence (P23634 1-1205 isoform P23634-6): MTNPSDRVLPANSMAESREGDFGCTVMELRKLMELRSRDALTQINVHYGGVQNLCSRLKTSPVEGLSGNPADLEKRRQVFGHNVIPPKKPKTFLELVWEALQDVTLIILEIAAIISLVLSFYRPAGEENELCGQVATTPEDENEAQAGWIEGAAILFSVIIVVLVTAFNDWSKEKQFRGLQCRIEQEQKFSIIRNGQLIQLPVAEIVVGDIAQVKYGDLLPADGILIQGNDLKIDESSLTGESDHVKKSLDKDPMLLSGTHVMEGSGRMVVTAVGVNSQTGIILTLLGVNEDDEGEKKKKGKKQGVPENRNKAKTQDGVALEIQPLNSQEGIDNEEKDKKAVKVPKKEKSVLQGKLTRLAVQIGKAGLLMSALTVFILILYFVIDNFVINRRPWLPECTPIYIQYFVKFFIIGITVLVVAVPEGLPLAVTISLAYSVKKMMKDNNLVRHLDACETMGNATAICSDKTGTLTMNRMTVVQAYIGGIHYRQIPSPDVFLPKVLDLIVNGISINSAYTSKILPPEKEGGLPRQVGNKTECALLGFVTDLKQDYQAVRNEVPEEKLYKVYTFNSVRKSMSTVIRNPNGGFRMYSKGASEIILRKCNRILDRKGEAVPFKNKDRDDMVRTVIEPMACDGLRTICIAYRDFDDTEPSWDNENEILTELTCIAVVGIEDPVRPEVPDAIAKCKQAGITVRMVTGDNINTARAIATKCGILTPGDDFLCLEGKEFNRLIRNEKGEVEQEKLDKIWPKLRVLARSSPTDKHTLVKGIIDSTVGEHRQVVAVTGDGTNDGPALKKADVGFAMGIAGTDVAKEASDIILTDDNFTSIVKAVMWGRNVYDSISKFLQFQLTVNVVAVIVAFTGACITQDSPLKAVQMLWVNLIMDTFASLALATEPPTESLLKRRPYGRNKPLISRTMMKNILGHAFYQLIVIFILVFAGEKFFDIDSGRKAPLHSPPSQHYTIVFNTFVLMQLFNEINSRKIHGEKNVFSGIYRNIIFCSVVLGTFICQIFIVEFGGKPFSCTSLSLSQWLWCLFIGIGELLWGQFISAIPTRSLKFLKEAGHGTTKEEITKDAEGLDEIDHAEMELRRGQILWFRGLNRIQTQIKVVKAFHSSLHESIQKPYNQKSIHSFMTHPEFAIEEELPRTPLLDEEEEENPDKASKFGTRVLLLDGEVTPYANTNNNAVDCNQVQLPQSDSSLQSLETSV
# T1 sequence (P35613 140-385 partner limits assumed): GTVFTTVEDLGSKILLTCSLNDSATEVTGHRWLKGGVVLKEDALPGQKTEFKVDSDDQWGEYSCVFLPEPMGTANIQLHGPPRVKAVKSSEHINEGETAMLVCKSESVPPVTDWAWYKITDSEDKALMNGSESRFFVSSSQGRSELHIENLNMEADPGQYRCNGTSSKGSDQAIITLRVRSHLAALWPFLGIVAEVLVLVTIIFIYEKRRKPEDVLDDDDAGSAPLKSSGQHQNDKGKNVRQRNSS
# Method: Natural and synthetic compounds of formula (I) were tested for their ability to influence human erythrocyte plasma membrane Ca^2+ -ATPase. The enzyme Ca^2+ -ATPase in the human red blood cell plasma membrane has previously been studied and its stimulation by calmodulin and activation by lipids and proteolysis and its primary structure have been published (see Carafoli E (1991) Calcium pump of the plasma membrane, Physiological Reviews 71, 129-153.
# (§1) Calmodulin-depleted erythrocyte membranes were prepared by continuous filtration through a hollow fibre, Ashahi plasma separator as described by W S Price, B D Roufogalis, P W Kuchel (1989), A simple and inexpensive method for preparing erythrocyte membranes by filtration through a hollow-filter system, Anal. Biochem., 179, 190-193. Packed cells were obtained from the New South Wales Red Cross Transfusion Service, Sydney. The whole preparation was carried out at 4° C. 1 unit of packed red cells was washed 3 times with isotonic buffer, containing 130 mM KCl, 20 mM Tris-HCl (pH 7.4), and the cells were collected by centrifugation at 4,000 RPM. The cells were haemolysed by the buffer containing 1 mM EDTA, 10 mM Tris-Hcl (pH 7.4), 0.5 mM PMSF (phenylmethyl sulfonyl fluoride). The haemolyzate mixture was passed through the hollow fibre system until the membrane appeared white, and then washed with 10 mM potassium Hepes (pH 7.4). The membranes were collected by centrifugation at 10,000 RPM for 20 min, the membranes were resuspended in storage buffer containing 130 mM KCl, 2 mM dithiothreitol, 0.5 mM MgCl2, 20 mM potassium-Hepes (pH 7.5). The membranes with protein concentration of 1.5-5.4 mg/ml were stored at -80° C. until required.
# Erythrocyte membranes were incubated at 37° C. for one hour in a total volume of 60 μl of 65 mM KCl, 50 mM HEPES (pH=7.4), 5 mM MgCl2, 50 μM CaCl2, 0.1 mM EGTA and in absence and presence of calmodulin (0.3 μM). Test compounds were dissolved in dimethyl sulfoxide DMSO and 2 μl was added to the assay mixture prior the addition of ATP. The final concentration of DMSO in the assay mixture was 3%. The reaction was started by adding 2 mM ATP (pH=7.4). After 1 hour of incubation, colouring agent (180 μl) was added and incubated at 37° C. for 1/2 hrs. The phosphate liberated to the assay medium was determined spectrometrically using a microplate reader at 750 nm. The activity of the Mg^2+ -ATPase (assayed in the absence of added CaCl2) was subtracted from the total activity assayed in the presence of Ca^2+.
# [3] = target: T1, human erythrocyte plasma membrane Ca^2+ -ATPase; assay: Ca^2+ -ATPase assay (erythrocyte membranes; Table 1); type: biochemical; conditions: for inhibition at 25 µM / inhibition at 100 µM: read-out: INHIBITION OF Ca^2+ -ATPase PERCENT (%); for Ca^2+ -ATPase inhibitory activity relative to striatol: compared with natural product striatol
# Method: Natural and synthetic compounds of formula (I) were tested for their ability to influence human erythrocyte plasma membrane Ca^2+ -ATPase.
# as §1, with “Packed” for “Calmodulin-depleted erythrocyte membranes were prepared by continuous filtration through a hollow fibre, Ashahi plasma separator as described by W S Price, B D Roufogalis, P W Kuchel (1989), A simple and inexpensive method for preparing erythrocyte membranes by filtration through a hollow-filter system, Anal. Biochem., 179, 190-193. Packed”
# Erythrocyte membranes (0.071-0.098 mg/ml) were incubated at 37° C. for one hour in a total volume of 0.4 ml of 65 mM KCl, 20 mM potassium-Hepes, 5 mM MgCl2, 50 μM CaCl2, 0.1 μm calmodulin, 0.1 mM EGTA. The reaction was started by adding 2 mM ATP(pH 7.4). […] The activity of the Mg^2+ -ATPase (assayed in the absence of added CaCl2) was subtracted from the total activity assayed in the presence of Ca^2+. […] A concentrated solution of the test substances was added to the reaction medium before adding ATP.
# [4] = tested on: brine shrimp (Artemia salina Leach); conditions: determined by Meyer et al.; cited from earlier work
# [5] = tested on: purified erythrocyte Ca^2+ -ATPase; assay: Inhibition of purified erythrocyte Ca^2+ -ATPase; type: biochemical; conditions: purified enzyme
# [6] = tested on: ^45 Ca^2+ efflux from rat thoracic aorta smooth muscle cells; assay: ^45 Ca^2+ efflux from cultured vascular smooth muscle cells; type: cell-based
# Text: ^45 Ca efflux from cultured vascular smooth muscle cells consists of two major mechanisms; one is dependent on extracellular sodium, mediated by the Na^+ -Ca^2+ exchanger (Na^+ - dependent Ca^2+ efflux), and the other is independent of extracellular sodium but is mediated by the Ca^2+ pump (Na^+ - independent Ca^2+ efflux). The effect of striatol on the efflux of calcium (^45 Ca^2+) from rat thoracic aorta smooth muscle cells in culture was studied. ^45 Ca^2+ efflux is a measure of plasma membrane Ca^2+ -ATPase (plus Na^+ : Ca^2+ exchange) in intact (whole) cells.
# [7] = absence of calmodulin, read-out: IC50 (-CaM)
# [8] = presence of calmodulin (0.3 μM), read-out: IC50 (+CaM)
# [9] = read-out: INHIBITION OF Ca^2+ -ATPase IC50
"IC50 [2, 7] [µM]","IC50 [2, 8] [µM]","IC50 [3, 9] [µM]",SMILES,LC50 ([1]; 24 hours),Ca^2+ -ATPase inhibitory activity (in words) [3],further results
8.4,9,7.6,"Oc1ccccc1CCCCCCCCCCc1ccccc1O [1,10-bis(2-hydroxyphenyl)decane]",1.9 µM and 0.62 µg/mL,strongest Ca^2+ -ATPase inhibition among the synthesised phenolic compounds,toxicity to brine shrimp (in words) ([1]; 24 hours): moderately toxic; Ca^2+ -ATPase inhibitory activity (in words) [2]: most potent inhibitors of plasma Ca^2+ -ATPase among the synthesised substances; inhibition at 25 µM [3]: 100%; Ca^2+ -ATPase inhibitory activity relative to striatol [3]: two-fold higher
12,20,–,"Oc1ccc(CCCCCCCCCCCCc2ccc(O)cc2O)c(O)c1 [1,12-bis(2,4-dihydroxyphenyl)dodecane]",14 µM and 5.4 µg/mL,–,–
12.5,13,8.3,"Oc1ccccc1CCCCCCCCCCCCc1ccccc1O [1,12-bis(2-hydroxyphenyl)dodecane]",2.6 µM and 0.94 µg/mL,strongest Ca^2+ -ATPase inhibition among the synthesised phenolic compounds,inhibition at 25 µM [3]: 100%; Ca^2+ -ATPase inhibitory activity relative to striatol [3]: two-fold higher
–,–,–,CCCCCCCCCc1ccccc1O [2-nonylphenol],–,–,"LC50 ([1]; 24 h): 480 nM and 0.11 µg/mL; IC50 ([2]; IC50 (+CaM), presence of calmodulin (0.3 μM)): 40 µM; IC50 ([2]; IC50 (-CaM), absence of calmodulin): 36 µM; IC50 [3]: 30 µM; inhibition at 100 µM [3]: 95%"
80,100,69,"CCCCCCCCCCCCc1ccc(O)cc1O [4-dodecylresorcinol, reference compound]",8.8 µM and 2.4 µg/mL,most potent among the alkylresorcinols tested,inhibition at 100 µM ([3]; at 100 μM): 68%
125,–,–,CCCCCCCCCc1ccc(O)cc1O [4-nonylresorcinol],10 µM and 2.4 µg/mL,–,–
20,–,–,"C=C(C)C(CC=C(C)C)Cc1c(O)cc(O)c2c1OC(c1c(O)cccc1O)CC2=O (stereo not drawn) [5,7,2',6'-tetrahydroxy-8-lavandulylflavanone]",> 100 µM and > 42 µg/mL,–,–
–,–,–,"COc1cc([C@@H]2c3cc4c(cc3[C@H](O)[C@H]3COC(=O)[C@H]23)OCO4)cc(OC)c1OC [podophyllotoxin, reference compound]",–,–,LC50 [4]: 5.8 µM; LC50 brine shrimp (Meyer et al.) [4]: 2.4 µg/mL; LC50 ([1]; 24 h): 3.8 µM and 1.6 µg/mL
–,–,16,"Cc1c(O)cc(CCCCCCCCCCCCCCc2cc(O)c(C)c(O)c2)cc1O [striatol, 1,14-bis(3,5-dihydroxy-4-methylphenyl)tetradecane]",11 µM and 4.9 µg/mL,–,"inhibitory activity with purified erythrocyte Ca^2+ -ATPase [5]: confirmed; inhibition of ^45 Ca^2+ efflux ([6]; 20 μM, 5 min): partial inhibition; inhibition of ^45 Ca^2+ efflux ([6]; 20 μM, 10 min): partial inhibition; inhibition of ^45 Ca^2+ efflux ([6]; 50 μM, 30 min): complete inhibition; toxicity to brine shrimp (in words) ([1]; 24 hours): relatively low toxicity; inhibition at 100 µM ([3]; at 100 μM): 98%"
